Test results as given in patent publication US20200199647A1, “ASSAY FOR SCREENING MODULATORS OF HOLOPHOSPHATASE ACTIVITY” (UNITED KINGDOM RESEARCH AND INNOVATION, priority 2017, published 2020).

How the values were obtained:
R15A [1] = target: T1, R15A (Homo sapiens, UniProt O75807); test: Pull-down: binding of P-eIF2α to MBP-tagged R15A on amylose beads; settings: 200 μM compound, 200 nM MBP-R15A, 1 μM P-eIF2α, 10 min 4° C.
T1 construct: PPP1R15A amino acids 325-636 (R15A); His6 (C); made in house; host or cells: E. coli BL21 pLysS
T1 sequence (O75807 325-636, stated change not applied): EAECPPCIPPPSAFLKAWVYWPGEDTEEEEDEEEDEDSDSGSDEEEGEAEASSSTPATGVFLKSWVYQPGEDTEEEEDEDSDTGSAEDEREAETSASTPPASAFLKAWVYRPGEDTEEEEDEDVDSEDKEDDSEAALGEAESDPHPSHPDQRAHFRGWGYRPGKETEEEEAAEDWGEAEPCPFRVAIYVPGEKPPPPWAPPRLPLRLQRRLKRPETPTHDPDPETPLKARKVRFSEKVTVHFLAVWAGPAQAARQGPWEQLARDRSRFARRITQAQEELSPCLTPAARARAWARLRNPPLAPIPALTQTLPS
Experimental: Purified MBP-tagged regulatory subunits (200 nM), P-eIF2α (1 μM), PP1c ([…]), and 200 μM compounds, or DMSO vehicle, were added as appropriate to 20 μl amylose magnetic bead, pre-equilibrated with interaction buffer (50 mM Tris (pH 7.4), 200 mM NaCl, 0.05% Tween20) in 200 μl volume. All protein dilutions were carried out in interaction buffer. 5% input sample was removed, and added to 4× Laemmli sample buffer for later analysis. The beads were incubated for 10′ at 4° C. The supernatant was removed, and the beads were washed thoroughly with interaction buffer and then resuspended with 50 μl of 2× Laemmli sample buffer. Samples were run on 4-12% NuPAGE Bis-Tris gels (Life Technologies) and analysed by immunoblotting, using anti-MBP HRP (E8038) (NEB), anti-eIF2α (ab26197) (AbCam) or anti-PPP1A (ab137512) (AbCam) antibodies.

R15A [2] = target: T1, R15A; test: Limited trypsin proteolysis of R15A (conformational change); settings: 22° C.
Experimental: Reactions were allowed to proceed at 22° C. with shaking at 350 rpm. At time points 30 min, 1 h, 2 h or 3 h, 30 μl of sample was removed from the mix and digestion was stopped by addition of 10 μl of 16% SDS Laemmli sample buffer. Samples were run on 4-12% NuPAGE Bis-Tris gels (Life Technologies). Proteins were visualised by staining with InstantBlue Coomassie Protein Stain (Expedeon) protein stain.
Purified R15A and R15B were diluted to 3 μM in PBS, and incubated for 15′ at RT with 100 μM Raphin1, or DMSO vehicle. Reactions were initiated by addition of 5 nM of trypsin from bovine pancreas (Sigma), made up in PBS, and allowed to proceed for 5′ at 22° C., with shaking at 350 rpm. Digestion was stopped by addition of 4× Laemmli sample buffer and samples were run on 4-12% NuPAGE Bis-Tris gels (Life Technologies). Proteins were visualised by staining with InstantBlue Protein Stain.

PP1c = target: T2, PP1c (Homo sapiens, UniProt P62136); test: Dephosphorylation of P-eIF2α by increasing amounts of PP1c alone; format: biochemical; settings: compound 100 μM, 30° C., 16 h
T2 construct: The cDNA encoding amino acids 7-330 of human PP1cα; made in house; host or cells: E. coli BL21/pGro7 (PP1c); E. coli BL21 pLysS (eIF2α)
T2 sequence (P62136 7-330): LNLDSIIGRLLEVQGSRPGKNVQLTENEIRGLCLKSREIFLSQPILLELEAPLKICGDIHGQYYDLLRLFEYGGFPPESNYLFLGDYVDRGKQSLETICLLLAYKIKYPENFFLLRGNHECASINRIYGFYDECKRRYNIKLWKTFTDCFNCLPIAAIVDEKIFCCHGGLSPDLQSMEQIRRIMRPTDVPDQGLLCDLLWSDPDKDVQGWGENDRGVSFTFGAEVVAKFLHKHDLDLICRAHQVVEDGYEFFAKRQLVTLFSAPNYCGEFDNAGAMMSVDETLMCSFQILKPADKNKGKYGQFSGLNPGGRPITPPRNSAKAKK
Experimental: (§1) PP1c was diluted to the appropriate concentration (as indicated in the figure legends) in dephosphorylation buffer immediately prior to use. Dephosphorylation reactions were carried out by pre-incubating diluted PP1c in the presence or absence of regulatory subunits (either […]), and/or compounds (all at 100 μM, except for Salubrinal which was used at 30 μM), for 15′ at RT. All compounds were diluted in DMSO, and DMSO vehicle was used in all control experiments.
(§2) The reaction was initiated by the addition of 1 μM P-eIF2α or ^33P Phosphorylase a substrates and then incubated at 30° C. for 16 h with shaking at 350 rpm. Reactions were stopped by addition of 4× Laemmli sample buffer. eIF2α samples were analyzed by immunoblotting or Phos-tag gels. […] Samples in FIG. 8 and FIG. 16 were run on a 15% SuperSep Phos-tag acrylamide gel (Alpha Laboratories) and visualized by staining with InstantBlue Protein Stain.

R15A-PP1c = target: T3, R15A-PP1c (Homo sapiens, UniProt O75807); test: In vitro dephosphorylation of P-eIF2α by recombinant R15A-PP1c holophosphatase (10 nM PP1c); format: biochemical; settings: PP1c 10 nM, 1 μM P-eIF2α, compounds 100 μM, 30° C., 16 h
T3 construct: PPP1R15A amino acids 325-636 (R15A); His6 (C); made in house; host or cells: E. coli BL21 pLysS (R15A, eIF2α); E. coli BL21/pGro7 (PP1c)
T3 sequence (O75807 325-636, stated change not applied): as the sequence (O75807 325-636, stated change not applied) above
T3 sequence (P62136 7-330 partner): as the sequence (P62136 7-330) above
Experimental: as §1, §2

R15B^N/R15A^C = target: T4, R15B^N/R15A^C (Homo sapiens, UniProt O75807+Q5SWA1); test: Dephosphorylation of P-eIF2α by chimeric holophosphatase PP1c-R15B^N/R15A^C; format: biochemical; settings: PP1c 10 nM, compounds 100 μM, 30° C., 16 h
T4 construct: PPP1R15B amino acids 340-698 (R15B), 340-635 (R15B^N), and 636-698 (R15B^C); PPP1R15A amino acids 325-636 (R15A), 325-512 (R15A^N), and 513-636 (R15A^C); R15A^C (PPP1R15A amino acids 513-636); His6 (C); made in house; host or cells: E. coli BL21 pLysS (chimera, eIF2α); E. coli BL21/pGro7 (PP1c)
T4 sequence (Q5SWA1+O75807 fused, stated change not applied): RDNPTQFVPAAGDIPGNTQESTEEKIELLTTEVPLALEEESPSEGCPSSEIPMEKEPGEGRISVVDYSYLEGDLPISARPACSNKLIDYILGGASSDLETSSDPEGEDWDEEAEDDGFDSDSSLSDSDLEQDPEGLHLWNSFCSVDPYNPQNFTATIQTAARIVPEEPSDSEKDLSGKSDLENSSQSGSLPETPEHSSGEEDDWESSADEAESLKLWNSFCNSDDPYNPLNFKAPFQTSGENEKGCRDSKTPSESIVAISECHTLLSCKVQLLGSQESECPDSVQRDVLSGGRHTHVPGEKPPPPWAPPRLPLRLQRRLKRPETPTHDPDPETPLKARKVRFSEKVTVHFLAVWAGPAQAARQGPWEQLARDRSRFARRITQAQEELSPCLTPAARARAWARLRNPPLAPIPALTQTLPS
T4 sequence (P62136 7-330 partner): as the sequence (P62136 7-330) above
From the text: The cDNA encoding human PPP1R15A, PPP1R15B and PPP1R3A regulatory subunits were cloned into a pMAL-c5×-His vector, encoding for an amino-terminal MBP-tag and a carboxy-terminal His6-tag. […] R15A^N/R15B^C Chimeras were obtained by swapping the amino-terminal regions (R15^N) of R15A and R15B proteins described above, whilst maintaining the same carboxy-terminal regions (R15^C), to produce R15B^N/R15A^C and […] chimeras respectively, using In-Fusion cloning (Takara). All regulatory subunits were expressed in BL21 pLysS cells in Luria broth (LB) at 30° C. overnight. […] R15 proteins were stored at −80° C. and used within one month.
as §1
The reaction was initiated by the addition of 1 μM P-eIF2α or ^33P Phosphorylase a substrates and then incubated at 30° C. for 16 h with shaking at 350 rpm. Reactions were stopped by addition of 4× Laemmli sample buffer. eIF2α samples were analyzed by immunoblotting or Phos-tag gels. […]

| Compound | effect on binding of eIF2α to R15A (R15A [1]) | sensitivity of R15A to trypsin proteolysis (R15A [2]; 100 μM compound, 0.5 μM R15A, 2.5 nM trypsin, 30 min to 3 h) | inhibition of PP1c alone (PP1c) | inhibition of R15A-PP1c eIF2α holophosphatase (R15A-PP1c) | inhibition of R15B^N/R15A^C chimeric holophosphatase (R15B^N/R15A^C) | trypsin sensitivity of R15A (R15A [2]; 100 μM Raphin1, 3 μM R15A, 5 nM trypsin, 5 min) |
| --- | --- | --- | --- | --- | --- | --- |
| N=C(N)N/N=C/c1c(Cl)cccc1Cl [Guanabenz] | decreased the binding of R15A to eIF2α | decreased the sensitivity of R15A to trypsin proteolysis | did not inhibit PP1c | selectively inhibited R15A-PP1c | largely insensitive | – |
| NC(N)=N/N=C/c1cccc(Cl)c1Cl [Raphin1] | this inhibition was not observed with R15A | – | did not inhibit PP1c | not R15A-PP1c | selectively inhibited R15B^N/R15A^C | had no effect on the trypsin sensitivity of R15A |
